These results are taken from patent publication US11834698B2, “Process for determining enzyme activity in a cell by activity-based reporter gene technology (ABRGT)” (INDIAN INSTITUTE OF SCIENCE EDUCATION AND RESEARCH, priority 2018, dated 2023).

For one assay, the target named is T1, caspase-3 GFPspark (Homo sapiens, UniProt P42574).
T1 sequence (P42574 29-175 limits assumed): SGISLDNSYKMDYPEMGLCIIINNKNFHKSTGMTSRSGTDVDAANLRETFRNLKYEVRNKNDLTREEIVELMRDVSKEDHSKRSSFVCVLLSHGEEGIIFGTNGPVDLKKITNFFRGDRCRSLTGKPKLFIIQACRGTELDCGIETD
T1 sequence (P42574 176-277 limits assumed): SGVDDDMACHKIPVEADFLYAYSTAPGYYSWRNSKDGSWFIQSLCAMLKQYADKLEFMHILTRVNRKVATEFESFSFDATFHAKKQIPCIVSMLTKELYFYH
The assay can be described thus: AbRGT FRET imaging / acceptor photobleaching, caspase-3 GFPspark in MCF-7 cells. The arrangement: host or cells: MCF-7, HeLa, HEK-293. The class given is cell-based. The settings on record: MCF-7, STS 1 μM 4 h. How it is done: FIG. 2 depicts (a) a schematic representation of AbRGT in determining the specific activation of caspase-3 GFPspark tagged enzyme by FRET effect utilizing Rh-VAD-FMK (probe 1). (b) The fluorescence signal was collected in GFP, FRET and Rhodamine (Rh) channels. MCF-7 cells transfected with caspase-3 GFPspark treated with (i) 1 μM STS for 4 h or (ii) 1 μg/ml TRAIL for 5 h and then labelled with probe 1. (iii) Un-transfected MCF-7 cells were treated with 1 μM STS for 4 h and then labelled with the probe 1. MCF-7 cells transfected with enhanced green fluorescent protein (EGFP) plasmid treated (iv) with 1 μM STS or (v) without STS for 4 h and then labelled with probe 1, scale bar, […]. (c) FRET validation between GFPspark and rhodamine fluorophore using the acceptor photobleaching method. Images for GFP and rhodamine fluorescence signals were collected in GFP and FRET channels pre- and post-bleaching of rhodamine signals. (d) Quantification of change in GFP fluorescence intensity after rhodamine photo-bleaching in both unbleached control region and rhodamine bleached region, region of interest (ROI), area under the white square. Error bar represents the s.e.m for n=15 cells (*P<0.00001). Scale bar, 10 μm. a.u., arbitrary units.
FIGS. 6A and 6B depict time dependent activation of caspase-3 GFPspark in MCF-7 cells upon STS (1 μM) induction. MCF-7 cells transfected with 2 μg of caspase-3 GFPspark plasmid and treated with 1 μM of STS for 2, 6, and 8 h. Cells were then labelled with the probe 1 for an additional 2 h. […] FRET validation between GFPspark and rhodamine fluorophore using the acceptor photobleaching method for the MCF-7 cells with STS induction for 2, 6 and 8 h. I=intensity (a.u.), arbitrary units. The calculated FRET efficiency for 2, 6 and 8 h are 38, 43, and 36% respectively.
FIGS. 7A and 7B depict applying AbRGT for specific detection of active caspase-3 GFPspark using the Rh-DEVD-FMK (probe 2). Caspase-3 GFPspark (2 μg) overexpressing MCF-7 cells were treated with 1 μM of STS for 4 h and labelled with the probe 2 (1 μM). […] The rise in GFPspark intensity after rhodamine photobleaching in the background is insignificant as compared to the ROI, i.e., 68 a.u., with a calculated FRET efficiency of 35%.
FIG. 12 depicts confocal images of MCF-7 cells in GFP, FRET and Rh channel. Caspase-3 GFPspark transfected MCF-7 cells were treated with STS for 4 h and labelled (a) with or (b) without probe 1. Cells were pre-treated with (c) Z-VAD-FMK (50 μM) and (d) Q-VD-OPh (50 μM) pan-caspase inhibitors 3 h before the probe labelling.
(§1) Plasmids and transient transfection: GFPspark tagged plasmids; caspase-3 GFPspark tag (Cat: HG10050-ACG), caspase-7 GFPspark tag (HG10049-ACG), caspase-8 GFPspark (HG10078-ACG), caspase-9 GFPspark (HG11151-ACG) and cathepsin B GFPspark (HG10483-ACG) were procured from Sino Biological. For transfection, cells were seeded in a 6-well plate at a density of 0.4 million cells/well. At 60-70% confluency, cells were transiently transfected for 24 h at 37° C. with 1 μg of the GFPspark tagged plasmid DNA construct mixed with 5 μL of Lipofectamine 2000 (Invitrogen) according to the manufacturer's instructions. 24 h post-transfection, cells were visualized under the GFP filter for GFPspark expression under fluorescence microscope at 10× magnification.
Labelling of active caspases in apoptotic cells with FABP: After 24 h of transfection, cells were treated with STS (1 μM) drug or TRAIL (1 μg/ml) for apoptotic induction and incubated for 2, 4, 6 and 8 h at 37° C. in a humidified atmosphere of 5% CO2/95% air. Cells were gently scraped off from the surface at the end of apoptotic induction and centrifuged at 3000 rpm for 5 min. The cell pellet was resuspended in 300 μL of fresh DMEM containing 1 μM of probe for probe 2 and incubated for additional 2 h at 37° C. in a humidified atmosphere of 5% CO2. Cells were again centrifuged at 3000 rpm for 5 mins, and the supernatant was decanted. […]

Another assay concerns caspase-3/7. The assay can be described thus: Substrate-based reporter assay, CFP-DEVDR-YFP cleavage, live cell FRET. How it is done:
FIGS. 8A and 8B depict the time course of cleavage for CFP-DEVDR-YFP plasmid. Time is relative to the first frame taken after 8 h of STS treatment. […] The percentage rise in the CFP/YFP intensity ratio was 47%. Rise in CFP/YFP intensity ratio is an indirect measure of caspase-3/7 activation.
To rule out that the obtained FRET signal in [FIG. 2b (i)] is not because of random physical interaction between GFPspark and rhodamine dye, MCF-7 cells were transfected with a plasmid encoding for enhanced green fluorescent protein (EGFP). EGFP transfected MCF-7 cells were treated with STS (1 μM) for 4 h, labelled with the probe 1. […] In-gel fluorescence assay was also performed to validate the multiple off-targets labelling of probe 1 which has also been shown in the previous reports. […] The calculated FRET efficiency for (n=15 cells) is 35±1%. […] Caspase-3 activation was also monitored using probe 2 as fABP which is different from probe 1 in terms of peptide recognition sequence; DEVD in exchange for VAD as DEVD peptide sequence is more specific for caspases as compared to VAD. Probe 2 yielded a similar pattern of fluorescence signal in GFPspark, FRET and Rh channel as that of probe 1 [FIG. 7(a)]. The calculated FRET efficiency was 35% [FIG. 7(b)]. […] Acceptor photo-bleaching method was done to confirm the FRET signal, and the calculated FRET efficiency was 32±2% [FIG. 10 (a & b)].

The test system of assay [1] is cleaved caspase-3 p17 fragment. The assay can be described thus: Western blot of cleaved caspase-3 p17 fragment in HeLa cells. The settings on record: STS 1 μM, after 12 h, 18 and 24 h. The class given is cell-based. On the procedure:
FIG. 9 depicts a western blot analysis of cleaved caspase-3 p17 fragment after 18 and 24 h of STS (1 μM) treatment in HeLa cells. Lysate loading was done in triplicates. Double headed arrow representing 3 lanes with the same sample.
To rule out that the obtained FRET signal in [FIG. 2b (i)] is not because of random physical interaction between GFPspark and rhodamine dye, MCF-7 cells were transfected with a plasmid encoding for enhanced green fluorescent protein (EGFP). EGFP transfected MCF-7 cells were treated with STS (1 μM) for 4 h, labelled with the probe 1. […] In-gel fluorescence assay was also performed to validate the multiple off-targets labelling of probe 1 which has also been shown in the previous reports. […] The calculated FRET efficiency for (n=15 cells) is 35±1%. […] Caspase-3 activation was also monitored using probe 2 as fABP which is different from probe 1 in terms of peptide recognition sequence; DEVD in exchange for VAD as DEVD peptide sequence is more specific for caspases as compared to VAD. Probe 2 yielded a similar pattern of fluorescence signal in GFPspark, FRET and Rh channel as that of probe 1 [FIG. 7(a)]. The calculated FRET efficiency was 35% [FIG. 7(b)]. […] To confirm the reported results, the cleaved caspase-3 p17 fragment in immunoblotting was also detected by using active caspase-3 p17 antibody after […] of STS (1 μM) treatment [FIG. 9]. […]

Another assay concerns the target T2, cathepsin B GFPspark (Homo sapiens, UniProt P07858).
T2 construct: GFPspark (C); host or cells: HEK-293
The assay can be described thus: AbRGT FRET imaging / acceptor photobleaching, cathepsin B GFPspark in HEK-293 cells. The class given is cell-based. As to conditions: HEK-293, inhibitor 50 μM 1 h before probe 1 labelling, STS 4 h. On the procedure: FIG. 20 depicts confocal images of HEK-293 cells in GFP, FRET and Rh channel Cathepsin B GFPspark transfected HEK-293 cells were treated with STS (1 μM) for 4 h and labelled (a) (i) with or (a) (iv) without probe 1. Cells were pre-treated with (a) (ii) Z-VAD-FMK (50 μM) or (a) (iii) E-64 (50 μM) inhibitor 1 h before the probe 1 labelling. (b) Quantification of the change in GFPS fluorescence intensity after rhodamine photobleaching in both unbleached control region and rhodamine bleached region (ROI), using acceptor photo-bleaching method. Error bar represents the s.e.m for n=10 cells (*P<0.00001). Scale bar, 10 μm. a.u., arbitrary units.
as §1
Labelling of active caspases in apoptotic cells with FABP: After 24 h of transfection, cells were treated with STS (1 μM) drug or TRAIL (1 μg/ml) for apoptotic induction and incubated for 2, 4, 6 and 8 h at 37° C. in a humidified atmosphere of 5% CO2/95% air. Cells were gently scraped off from the surface at the end of apoptotic induction and centrifuged at 3000 rpm for 5 min. The cell pellet was resuspended in 300 μL of fresh DMEM containing 1 μM of probe for probe 2 and incubated for additional 2 h at 37° C. in a humidified atmosphere of 5% CO2. Cells were again centrifuged at 3000 rpm for 5 mins, and the supernatant was decanted. Cells were washed with 1×PBS, thrice finally resuspended in 20 μL of 1×PBS. The cell suspension was put on a slide, and a coverslip was placed over it. It was left for air drying. Slides were then imaged for GFP, FRET and rhodamine fluorescence signals under confocal microscopy.
Inhibitor assay: Cells were pre-treated with 50 μM of Z-VAD-FMK or Q-VD-OPh or E-64 inhibitor 1 h before probe 1 labelling and incubated for 1 h at 37° C. in a humidified atmosphere of 5% CO2. Cells were gently scraped off from the surface at the end of inhibitor treatment and centrifuged at 3000 rpm for 5 min Cells were then labelled with the probe 1 as described in the previous section.
Fluorescence imaging studies, FRET procedure: Images were collected on Zeiss LSM710 confocal microscope with 25 mW argon laser using Zen10 software. The laser was tuned to lines at 488 nm (excitation laser for GFPspark) and 561 nm (excitation laser for rhodamine) Cells were examined with a 40× 1.3 NA Zeiss oil immersion objective and 2.4× zoom. Images were collected in the three channels; GFP channel, argon laser tuned at 488 nm with 2% laser intensity and fluorescence emission was collected in emission range of 490-550 nm; rhodamine channel, argon laser tuned to 561 nm laser with 2% laser intensity and fluorescence emission was collected in range 550-650 nm and FRET channel with excitation laser of GFPSPARK channel and emission range of rhodamine channel. […]

Turning to Rh-DEVD-FMK [probe 2], at caspase-3 GFPspark (probe 1 μM), the “rise in GFP intensity after rhodamine photobleaching in ROI” value is on record as 68 a.u. In addition, the “calculated FRET efficiency” value on caspase-3 GFPspark (probe 1 μM 2 h, acceptor photobleaching) is 35%.

`CN[C@@H]1C[C@H]2O[C@@](C)([C@@H]1OC)n1c3ccccc3c3c4c(c5c6ccccc6n2c5c31)C(=O)NC4` [STS, staurosporine]: the “percentage rise in the CFP/YFP intensity ratio” value with caspase-3/7 (CFP-DEVDR-YFP plasmid, from 8 h of STS treatment) was 47%. Moreover, in the assay on caspase-3/7 (STS 1 μM, live cell imaging), the “time of caspase-3/7 activation after treatment” value was 10 to 12 h. In assay [1], the “cleaved caspase-3 p17 fragment in immunoblotting” value was “detected”.

Consider `CC(C)C[C@H](NC(=O)[C@H]1O[C@@H]1C(=O)O)C(=O)NCCCCN=C(N)N` [E-64], for which, at cathepsin B GFPspark, the “effect of inhibitor on FRET signal” value is recorded as “abolished” and the “signal in Rh channel in presence of inhibitor” value is “sharp, intense punctate labelling was observed”.
